Reference: paper PMC11352469, “Comprehensive Analysis of Kisspeptin Signaling: Effects on Cellular Dynamics in Cervical Cancer” (Biomolecules, 2024)
Residues, ends and D or L forms follow the SMILES beside them.

Tests used:
kisspeptin receptor [1] = molecular target: T1, kisspeptin receptor (Homo sapiens, UniProt Q969F8); test: BRET assay, Gq pathway; format: cell-based; design: expressed in transfected cells; host or cells: HeLa cells, transient transfection with PEI
Source text: (§1) The Bioluminescence Resonance Energy Transfer (BRET) assay was developed as described before. Briefly, HeLa cells were transiently transfected with these plasmids encoding for the GPCR, Gα subunit, the G protein effectors tagged with the BRET donor (RlucII), and the plasma membrane anchor (the CAAX motif from KRas, which includes a prenylation and a polybasic domain) fused to the BRET acceptor rGFP using Polietilendiimine (PEI) as described in Avet et al.. Fourty-eight hours post-transfection, cells were incubated with the coelenterazine substrate for Renilla luciferase Prolume Purple, stimulated with kisspeptin receptor agonists for 10 min and BRET signals were measured using a dual-filter luminometer (SPARK, Tecan Life Sciences, Männedorf, Switzerland). BRET ratios were calculated by dividing the acceptor emission by the donor emission, providing a quantitative measure for […]. Data were analyzed using Prism 8.0 (GraphPad) to determine interaction dynamics under various experimental conditions.

kisspeptin receptor [2] = molecular target: T1, kisspeptin receptor; test: BRET assay, β-arrestin2 recruitment; format: cell-based; design: expressed in transfected cells; host or cells: HeLa cells, transient transfection with PEI
Source text: as §1

kisspeptin receptor [3] = molecular target: T1, kisspeptin receptor; test: BRET assay, G15 pathway; format: cell-based; design: expressed in transfected cells; host or cells: HeLa cells, transient transfection with PEI
Source text: as §1

kisspeptin receptor [4] = molecular target: T1, kisspeptin receptor; test: BRET assay, β-arrestin1 recruitment; format: cell-based; design: expressed in transfected cells; host or cells: HeLa cells, transient transfection with PEI
Source text: as §1

MCF7 cells = test: Cytotoxicity MTT assay, MCF7; format: cell-based, human; conditions: 48 h
Description: Human cervical adenocarcinoma (HeLa) cells (cat# CRM-CCL-2) were obtained from the American Type Culture Collection (ATCC, Manassas, VA, USA). Human breast adenocarcinoma (MCF7) cells, Human prostate adenocarcinoma (PC3) cells, Human gastric adenocarcinoma (AGS) cells and Human Embryonic Kidney cells (HEK293T) were kindly provided by the Universidad Industrial de Santander. HeLa, MCF7, and HEK293T cells were cultured in DMEM medium supplemented with 10% FBS (fetal bovine serum), 1% penicillin/streptomycin. PC3 and AGS cells were cultured in RPMI medium supplemented with 10% FBS, 1% penicillin/streptomycin. All cells were maintained at 37 °C and 5% CO2.
15,000 cells per well were plated in 96-well plates (Greiner, Fisher Scientific, Waltham, MA, USA) using a fully complemented medium, and incubated at 37 °C. Following a 24 h period, cells underwent serum starvation before being treated with KP10 and its analogs at concentrations of 10, 100, 250, and 500 nM for 48 h. Subsequently, each well received 100 µL of MTT solution (0.5 mg/mL), and the plates were incubated at 37 °C for 3 h. After adding the MTT solvent and further incubation for 15 min, the resultant absorbance was measured at 590 nm using a BioTech RT-2100C microplate reader. Data analysis was performed using Prism 8.0 software (GraphPad).

kisspeptin receptor [5] = molecular target: T1, kisspeptin receptor; test: BRET assay, G14 pathway; format: cell-based; design: expressed in transfected cells; host or cells: HeLa cells, transient transfection with PEI
Source text: as §1

kisspeptin receptor [6] = molecular target: T1, kisspeptin receptor; test: BRET assay, G11 pathway; format: cell-based; design: expressed in transfected cells; host or cells: HeLa cells, transient transfection with PEI
Source text: as §1

kisspeptin receptor [7] = molecular target: T1, kisspeptin receptor; test: BRET assay, Gz pathway; format: cell-based; design: expressed in transfected cells; host or cells: HeLa cells, transient transfection with PEI
Source text: as §1, with “conditions. The bias factor for the kisspeptin analogs was calculated using the operational model of agonism as described by Kenakin [31]. Emax and EC50 values were determined for each signaling pathway (e.g., G protein activation, β-arrestin recruitment). The data were then fitted to the operational model to estimate transduction coefficients (τ). The bias factor (ΔLog(τ/KA)) was calculated by comparing the τ/KA values for each pathway relative to a reference pathway. This method quantifies signaling bias by evaluating relative efficacy and potency across pathways. Statistical significance of the observed bias was assessed to ensure the differences were not due to random variation. All calculations and analyses were performed using GraphPad Prism software (GraphPad, San Diego, CA, USA).” for “conditions.”

T1 sequence (Q969F8 whole entry, the tested form may be a part): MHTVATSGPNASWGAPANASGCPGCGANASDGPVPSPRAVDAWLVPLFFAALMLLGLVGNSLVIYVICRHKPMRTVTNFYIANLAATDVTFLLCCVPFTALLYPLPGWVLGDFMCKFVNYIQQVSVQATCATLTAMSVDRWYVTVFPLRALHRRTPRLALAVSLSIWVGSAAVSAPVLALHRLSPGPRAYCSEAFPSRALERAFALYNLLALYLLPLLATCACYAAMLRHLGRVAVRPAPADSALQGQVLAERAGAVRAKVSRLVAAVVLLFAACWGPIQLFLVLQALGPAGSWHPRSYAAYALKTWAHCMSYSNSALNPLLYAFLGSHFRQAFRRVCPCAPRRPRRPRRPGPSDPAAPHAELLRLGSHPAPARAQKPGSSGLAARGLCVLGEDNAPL

## CC(C)C[C@H](NC(=O)CNC(=O)[C@H](Cc1ccccc1)NC(=O)[C@H](CO)NC(=O)[C@H](CC(N)=O)NC(=O)[C@H](C)NC(=O)[C@H](CC(N)=O)NC(=O)[C@@H](N)Cc1ccc(O)cc1)C(=O)N[C@@H](CCCNC(=N)N)C(=O)N[C@@H](Cc1ccccc1)C(N)=O [Ala^3-KP10] (H-YNANSFGLRF-NH2; N-terminus assumed)
Kisspeptin receptor [1]; HeLa cells, Gq pathway
  EC50: 85.1 nM
Kisspeptin receptor [1]; HeLa cells, Gq pathway, KP10 = 100%
  Emax: 107%
Kisspeptin receptor [1]; fold change of EC50 relative to KP10, Gq pathway
  Fc Gq: 5.76
Kisspeptin receptor [2]; HeLa cells, β-arrestin2 recruitment, KP10 = 100%
  Emax: 63.9%
Kisspeptin receptor [2]; HeLa cells, β-arrestin2 recruitment, mean of 4 experiments, read-out: EC50(M) β-arrestin2
  EC50: 1.43e-06 M
Kisspeptin receptor [2]; HeLa cells, β-arrestin2 recruitment, read-out: pEC50 β-arrestin2 (converted)
  EC50: 1e-06 M
Kisspeptin receptor [2]; fold change of EC50 relative to KP10, β-arrestin2
  Fc β-arrestin2: 3.82
Kisspeptin receptor [3]; HeLa cells, G15 pathway, KP10 = 100%
  Emax: 99.5%
Kisspeptin receptor [3]; HeLa cells, G15 pathway, read-out: pEC50 G15 (converted)
  EC50: 135 nM
Kisspeptin receptor [3]; fold change of EC50 relative to KP10, G15 pathway
  Fc G15: 4.92
Kisspeptin receptor [4]; HeLa cells, β-arrestin1 recruitment, KP10 = 100%
  Emax: 69%
Kisspeptin receptor [4]; HeLa cells, β-arrestin1 recruitment, mean of 4 experiments
  EC50: 1190 nM
Kisspeptin receptor [4]; fold change of EC50 relative to KP10, β-arrestin1
  Fc β-arrestin1: 2.01
MCF7 cells
  pIC50 MCF7: 2.624
Kisspeptin receptor [5]; HeLa cells, G14 pathway, KP10 = 100%
  Emax: 100%
Kisspeptin receptor [5]; HeLa cells, G14 pathway, read-out: pEC50 G14 (converted)
  EC50: 166 nM
Kisspeptin receptor [5]; fold change of EC50 relative to KP10, G14 pathway
  Fc G14: 4.28
Kisspeptin receptor [6]; HeLa cells, G11 pathway, KP10 = 100%
  Emax: 102%
Kisspeptin receptor [6]; HeLa cells, G11 pathway, read-out: pEC50 G11 (converted)
  EC50: 209 nM
Kisspeptin receptor [6]; fold change of EC50 relative to KP10, G11 pathway
  Fc G11: 4.65
Kisspeptin receptor [7]; HeLa cells, Gz pathway, KP10 = 100%
  Emax: 94%
Kisspeptin receptor [7]; HeLa cells, Gz pathway, mean of 4 experiments, read-out: EC50(M) Gz
  EC50: 6.46e-07 M
Kisspeptin receptor [7]; HeLa cells, Gz pathway, read-out: pEC50 Gz (converted)
  EC50: 5.75e-07 M
Kisspeptin receptor [7]; fold change of EC50 relative to KP10, Gz pathway
  Fc Gz: 3.96
Kisspeptin receptor [7]; operational model, KP10 as reference, HeLa cells
  Δ(logτ/KA) bias factor, Gαz pathway: −0.7
